The values below come from ChEMBL document CHEMBL3994583, “Discovery of 4-[(5-arylidene-4-oxothiazolidin-3-yl)methyl]benzoic acid derivatives active as novel potent allosteric inhibitors of protein tyrosine phosphatase 1B: In silico studies and in vitro evaluation as insulinomimetic and anti-inflammatory agents” (Eur J Med Chem, 2017).

In data set [1] the target is T1, Tyrosine-protein phosphatase non-receptor type 1 (Homo sapiens) (UniProt P18031).
T1 sequence (whole entry): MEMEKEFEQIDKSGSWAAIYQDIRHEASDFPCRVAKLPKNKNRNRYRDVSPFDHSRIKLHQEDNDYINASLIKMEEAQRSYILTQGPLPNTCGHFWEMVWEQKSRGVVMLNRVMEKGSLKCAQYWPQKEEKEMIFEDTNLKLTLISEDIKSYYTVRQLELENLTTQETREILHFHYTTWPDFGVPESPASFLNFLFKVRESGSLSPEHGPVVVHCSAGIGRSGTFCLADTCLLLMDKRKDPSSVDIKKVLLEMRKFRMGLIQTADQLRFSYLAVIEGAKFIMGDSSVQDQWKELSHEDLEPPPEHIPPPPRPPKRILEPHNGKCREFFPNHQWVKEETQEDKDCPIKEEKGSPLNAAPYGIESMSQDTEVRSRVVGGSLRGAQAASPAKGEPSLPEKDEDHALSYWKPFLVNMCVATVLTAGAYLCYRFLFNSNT
As to the kind of experiment: Inhibition of PTP1B in human HepG2 cells assessed as increase in phosphorylation of Akt at Ser473 residue at 50 uM after 30 mins by Western blot method. It counts as cell-based. (In western blotting, separated proteins are transferred to a membrane and probed.)

For data set [2], the target named is T1, Tyrosine-protein phosphatase non-receptor type 1 (Homo sapiens). Briefly: Irreversible inhibition of full length recombinant human PTP1B assessed as recovery of enzyme activity up to 50 uM using pNPP as substrate preincubated for 1 hr followed by substrate addition by spectrophotometric method. On the set-up: scale not given: the % may be the effect or the level left.

In data set [3] the test system is NCTC-2544. Briefly: Anti-inflammatory activity in IFN-gamma and histamine-stimulated human NCTC-2544 cells assessed as reduction in COX-2 protein expression by Western blot method. The class given is functional, cell-based.
The subject of data set [4] is NCTC-2544. As to the kind of experiment: Anti-inflammatory activity in IFN-gamma and histamine-stimulated human NCTC-2544 cells assessed as reduction in iNOS protein expression by Western blot method. The class given is functional, cell-based.
For data set [5], the system named is NCTC-2544. Briefly: Anti-inflammatory activity in IFN-gamma and histamine-stimulated human NCTC-2544 cells assessed as reduction in ICAM-1 protein expression by Western blot method. It counts as functional, cell-based.
For data set [6], the system named is NCTC-2544. As to the kind of experiment: Cytotoxicity against human NCTC-2544 cells assessed as reduction in cell viability at 10 uM by MTT assay. As to conditions: nctc-2544, 10 µM. The class given is cell-based. For orientation: Formazan colour is commonly taken as a measure of viable cells.
The target of data set [7] is T2, Tyrosine-protein phosphatase non-receptor type 1 (Homo sapiens, UniProt P18031).
T2 sequence (P18031 whole entry): T1 sequence (whole entry)
As to the kind of experiment: Competitive inhibition of full length recombinant human PTP1B assessed as enzyme-inhibitor complex using pNPP as substrate by double reciprocal plot method.

Data set [8] addresses T1, Tyrosine-protein phosphatase non-receptor type 1 (Homo sapiens). Briefly: Inhibition of PTP1B in human HepG2 cells assessed as increase in phosphorylation of IRbeta at Tyr1162/1163 residues at 50 uM after 30 mins by Western blot method. The class given is cell-based.
Data set [9] has as its target T3, Tyrosine-protein phosphatase non-receptor type 1 (Mus musculus) (UniProt P35821).
T3 sequence (whole entry): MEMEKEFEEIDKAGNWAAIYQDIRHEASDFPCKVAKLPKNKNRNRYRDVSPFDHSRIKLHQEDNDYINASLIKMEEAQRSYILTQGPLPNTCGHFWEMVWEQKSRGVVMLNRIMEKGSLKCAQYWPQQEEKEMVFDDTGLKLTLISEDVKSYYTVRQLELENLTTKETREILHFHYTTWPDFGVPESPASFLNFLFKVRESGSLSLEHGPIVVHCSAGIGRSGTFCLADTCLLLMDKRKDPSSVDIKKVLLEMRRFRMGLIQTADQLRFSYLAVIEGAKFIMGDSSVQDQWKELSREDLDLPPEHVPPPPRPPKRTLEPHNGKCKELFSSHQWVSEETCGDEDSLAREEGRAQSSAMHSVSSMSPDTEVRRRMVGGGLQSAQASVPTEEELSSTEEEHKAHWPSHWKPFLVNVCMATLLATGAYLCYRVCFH
As to the kind of experiment: Inhibition of PTP1B in mouse C2C12 cells assessed as increase in phosphorylation of IRbeta at Tyr1162/1163 residues at 50 uM after 30 mins by Western blot method. It counts as cell-based.

Data set [10] relates to NCTC-2544. Briefly: Cytotoxicity against human IFN-gamma and histamine-stimulated NCTC-2544 cells assessed as reduction in cell viability at 10 uM by MTT assay. The class given is cell-based. The conditions noted are these: nctc-2544, 10 µM.
Data set [11] has as its system C2C12. Briefly: Insulinomimetic effect in mouse C2C12 cells assessed as induction of [3H]2-deoxyglucose uptake at 50 uM preincubated for 30 mins followed by [3H]2-deoxyglucose addition measured after 15 mins by liquid scintillation counting method. It counts as functional, cell-based.
The target in data set [12] is T2, Tyrosine-protein phosphatase non-receptor type 1. Briefly: Inhibition of full length recombinant human PTP1B using pNPP as substrate by spectrophotometric method.
The next data set concerns HepG2. As to the kind of experiment: Cytotoxicity against human HepG2 cells assessed as reduction in cell viability at 25 uM after 24 hrs by MTT assay. It counts as cell-based. The conditions noted are these: hepg2, 24 h.
In data set [13] the target is T3, Tyrosine-protein phosphatase non-receptor type 1 (Mus musculus). Briefly: Inhibition of PTP1B in mouse C2C12 cells assessed as increase in phosphorylation of Akt at Ser473 residue at 50 uM after 30 mins by Western blot method. It counts as cell-based.
In data set [14] the test system is C2C12. Briefly: Cytotoxicity against mouse C2C12 cells assessed as reduction in cell viability after 24 hrs by MTT assay. The class given is cell-based. The conditions noted are these: c2c12, 24 h.

pIC50, pKi: −log10 of the molar value. The source made the active and inactive calls. The calls are words filed in the database; no cut-off is given here.

For `O=C(O)c1ccc(CN2C(=O)/C(=C/c3cccc(Oc4ccccc4)c3)S/C2=N\c2ccc(F)cc2)cc1`, the inhibition entry in data set [1], in [8], in data set [9] and in [13] was “Active” each time. Moreover, the Activity in data set [2] is 10 to 50%; in the data set on NCTC-2544 [6], “Non-Toxic”; with NCTC-2544 [10] it was “Non-Toxic”; in the data set with HepG2, “Non-Toxic”; in the data set on C2C12 [14] it was “Non-Toxic”. Besides, the outcome in the data set on NCTC-2544 [3], in the data set on NCTC-2544 [4] and with C2C12 [11] was Active. For the same molecule, the outcome in the data set with NCTC-2544 [5] was inactive. In data set [7], the pKi (in general, −log10 of the Ki, conventionally taken in molar units) is 5.36. In addition, the pIC50 (in general, the negative decadic logarithm of the IC50, by convention in mol/L) in data set [12] was 5.00.
